Structures can show the parent of a compound that is named as a salt.
How the values were obtained:
[1] = system: Lipid Peroxidation in Rat Brain Homogenate; settings: for Inhibitory Effect (%): final concentration 10^-4 M, 5% homogenate, pH 7.4, 37° C., 1 hour, vs DMSO reference, malonic dialdehyde by TBA method
[2] = system: ischemic-reperfused rat heart; test: Reducing activity against the size of infarction in ischemic-reperfused rat heart; assay type: in vivo, rat (Wistar male); settings: i.v.; for Size of Infarction (% of left ventrical) / Inhibition (% of Control): 30 minutes after ligation; for Size of Infarction (% of left ventrical): mean ± SEM, control 35.0 ± 2.9
Procedure: Reducing activity of α-EPC-Na(DL) against the size of infarction in ischemic-reperfused rat heart:
Wistar male rats (body weight […]) were anesthetized with pentobarbital and subjected to thoracetomy. The left anterior descending coronary artery (LAD) was ligated at its origin for 1 hour. Then, the ligation was released to allow reperfusion. After 30 to 60 minutes reperfusion, the chest was closed and the animals (rats) maintained in conscious state. After 24 hours, the animals (rats) were reanesthetized, and then the heart was excised. The left ventricles were cut parallel to the atrioventricular sulcus into slices. The slices were stained at 37° C. for 15 minutes using triphenyltetrazolium chloride, and the size of infarction was weighed.
α-EPC-Na dissolved in saline solution was administered into the femoral vein at doses of 0.3, 1 and 5 mg/kg 30 minutes after the ligation. For the control group, only saline solution was administered.

Acute toxicity (LD50) = settings: in vivo, rat

CC(C)CCCC(C)CCCC(C)CCCC1(C)CCc2cc(OP(=O)(O)OC3=C(O)[C@@H]([C@@H](O)CO)OC3=O)ccc2O1 (mixture of isomers) [TPC-Na(DL), L-Ascorbic acid DL-tocoryl phosphate diester sodium salt]
Inhibitory Effect (%) [1]: 35.7 ± 2.6%

Cc1c(C)c2c(c(C)c1OP(=O)(O)OC1=C(O)[C@@H]([C@@H](O)CO)OC1=O)CCC(C)(CCCC(C)CCCC(C)CCCC(C)C)O2 (mixture of isomers) [α-EPC-Na(DL), L-Ascorbic acid, DL-α-tocopheryl phosphate diester sodium salt]
Size of Infarction (% of left ventrical) ([2]; 0.3 mg/kg): 32.4 ± 4.3 % of left ventrical
Inhibition (% of Control) ([2]; 1.0 mg/kg): -22.3 % of Control
Size of Infarction (% of left ventrical) ([2]; 1.0 mg/kg): 27.2 ± 2.8 % of left ventrical
size of myocardial infarction, reduced to ([2]; 5 mg/kg): about 50%
Inhibition (% of Control) ([2]; 5.0 mg/kg): -47.7 % of Control
Size of Infarction (% of left ventrical) ([2]; 5.0 mg/kg): 18.3 ± 1.1 % of left ventrical
reduction of the size of myocardial infarction (in words) ([2]; 0.3, 1 and 5 mg/kg): reduced the size of myocardial infarction dose-dependently
LD50 (Acute toxicity (LD50); sc, subcutaneous administration): 737 mg/kg
LD50 (Acute toxicity (LD50); oral administration): > 10000 mg/kg
Inhibitory Effect (%) [1]: 61.8 ± 38.1%

Cc1cc(OP(=O)(O)OC2=C(O)[C@@H]([C@@H](O)CO)OC2=O)c(C)c2c1OC(C)(CCCC(C)CCCC(C)CCCC(C)C)CC2 (mixture of isomers) [β-EPC-K(DL), L-Ascorbic acid DL-β-tocopheryl phosphate diester potassium salt]
Inhibitory Effect (%) [1]: 58.9 ± 19.4%

Cc1c(C)c2c(c(C)c1O)CCC(C)(CCCC(C)CCCC(C)CCCC(C)C)O2 (racemic) [DL-α-tocopherol, reference compound]
Inhibitory Effect (%) [1]: 50.8 ± 18.5%

O=C1O[C@H]([C@@H](O)CO)C(O)=C1O [L-ascorbic acid, reference compound]
inhibition of lipid peroxidation (in words) ([1]; 10^-4 M, rat brain homogenate): did not inhibit lipid peroxidation
Inhibitory Effect (%) [1]: 1.6 ± 15.0%

Cc1c(OP(=O)(O)OC2=C(O)[C@@H]([C@@H](O)CO)OC2=O)cc2c(c1C)O[C@](C)(CCC[C@H](C)CCC[C@H](C)CCCC(C)C)CC2 [γ-EPC-K(D), L-Ascorbic acid D-γ-tocopheryl phosphate diester potassium salt]
Inhibitory Effect (%) [1]: 62.0 ± 8.2%

Cc1cc(OP(=O)(O)OC2=C(O)[C@@H]([C@@H](O)CO)OC2=O)cc2c1O[C@](C)(CCC[C@H](C)CCC[C@H](C)CCCC(C)C)CC2 [δ-EPC-K(D), L-ascorbic acid D-δ-tocopheryl phosphate diester]
Inhibitory Effect (%) [1]: 38.1 ± 8.3%

Reference: patent US4948786A, “Composition for treatment of ischemic disorder in organs” (Takeda Chemical Industries, Ltd., priority 1988, dated 1990)
